Assay results taken from US6005099A, “Glucosamine disaccharides, method for their preparation, pharmaceutical composition comprising same, and their use” (priority 1993, dated 1999).
Values after ≈ are worked out from the molar mass of the structure shown. “Also recorded” adds a separate entry of the source. Where a name gives a salt, the structure may show the parent alone.

Key:
[1] = tested on: Limulus amoebocyte lysate (LAL); test: Endotoxicity, LAL gelification test; format: biochemical, Limulus polyphemus; details: ng LPS per ng product, n = 2-12
Protocol: (§1) The endotoxicity and the biological activity of disaccharide A (example 1) and of disaccharide B (example 2) were determined and compared to that of lipopolysaccharide originating from Escherichia coli O111:B4 (Sigma, Product No. L3024), lipid A (Sigma, Product No. L5399; used as a starting material in example 4), and 3-O-deacylated lipid A originating from lipid A of Escherichia coli F583 (prepared as in the comparative example), but without purification by HPLC.
(§2) The endotoxicity was determined in the Limulus amoebocyte lysate (LAL) test. This test is based on the observation that endotoxins induce coagulation of the hemolymph of Limulus polyphemus.
(§3) In the gelification test serial dilutions of the compound to be tested were mixed with LAL 1:1, (v/v) (Haemachem Inc., sensitivity LAL 0.06 endotoxin units/ml), and the mixture was incubated for one hour at 37° C. Then gel formation was monitored by measuring the optical density at 405 nm. The last dilution which formed a gel was determined by inverting the reaction microplate. The endotoxin activity in the samples was determined by comparison with dilutions of a lipopolysaccharide standard (1 endotoxin unit=0.1 ng LPS).
(§4) The results are expressed in table 3 as: ng LPS per ng product.

[2] = tested on: macrophages of C57BL/6 mice; test: Nitric oxide (NO) production in supernatants of macrophages; format: cell-based
Protocol: Bone marrow was collected from hip, femur and tibia of six week old male C57BL/6 mice.
After 7 days the mature macrophages were collected and resuspended in Dulbecco modified medium comprising 5% foetal calf serum to a concentration of 7×10^6 cells per ml. This cell suspension was mixed 1:1, (v/v) with samples diluted in the same medium and used in the biological tests performed in microplates with 70,000 cells/well (incubation at 37° C. for 22 hours, 100% humidity and 8% CO2).
Nitric oxide (NO) is produced by macrophages in response to bacterial infection and in particular LPS. NO seems to have cytostatic and cytotoxic properties. NO is extremely reactive and rapidly converted by oxidation into nitrite and nitrate.
The nitrite formation was determined using the Griess test (addition of 1:1, (v/v) N-(1-naphthyl)ethylene diamine hydrochloride [1 g/l in water] and p-aminobenzenesulphonamide [10 g/l in 5% H3 PO4 ]). The nitrite concentration in supernatants of activated macrophages was calculated in comparison to NaNO2 standards.

protease in LAL [3] = test: Endotoxicity, chromogenic LAL test; format: biochemical, Limulus polyphemus; details: ng LPS per ng product, n = 1-10
Protocol: as §1, §2
(§5) The endotoxicity was also measured in the chromogenic test, in which the activation of a protease in LAL by LPS was measured using a chromogen (Ac-Ile-Glu-Ala-Arg-pNA; Bio Whittaker Kit No. 50-650U). The colour formation (liberation of pNA (p-nitroaniline)) was measured at 405 nm.
(§6) Samples were pre-incubated at 37° C. during 10 minutes and subsequently chromogen-comprising LAL was added. The time required for reaching an optical density of 0.2 at 405 nm was measured. The endotoxin activity was calculated in comparison to a reference curve obtained for LPS standards.
as §4

[4] = tested on: Limulus amoebocyte lysate (LAL); test: Endotoxicity in the limulus amoebocyte lysate (LAL) test (gelification and chromogenic); format: biochemical, Limulus polyphemus
Protocol: as §1, §2, §3
The endotoxicity was also measured in the chromogenic test, in which the activation of a protease in LAL by LPS was measured using a chromogen (Ac-Ile-Glu-Ala-Arg-pNA; Bio Whittaker Kit No. 50-650U). […]

protease in LAL [5] = test: Endotoxicity, chromogenic LAL test with 0.1 mg/ml bovine serum albumin; format: biochemical, Limulus polyphemus; details: n=4 or 6
Protocol: as §5, §6
The endotoxicity of the disaccharides E, F and G was determined using the chromogenic LAL test (see infra). However, instead of using 1 mg/ml bovine serum albumin, 0.1 mg/ml has been used. The results (n=4 or 6) were obtained in two series of experiments and are shown hereafter.

[6] = tested on: murine peritoneal macrophages; test: Stimulation of nitrite production in murine peritoneal macrophages; format: cell-based; details: quantity determined by HPLC absorption vs disaccharide A
Protocol: The biological activity of the fractions was tested by the stimulation of nitrite production in murine peritoneal macrophages as described hereinbefore.
The quantity of each analogue in the stock solution was determined from the absorption on HPLC with reference to that of disaccharide A. The fractions show activities of the same order as disaccharide A (FIG. 8). […] The position of the acyloxyacyl, 2 versus 2', has only a minor influence on the activity.
In order to eliminate the possibility that activity was due to contamination of the samples by other substances such as LPS, disaccharides E, F, G and H were repurified on reversed-phase HPLC and the regions of the HPLC baseline just before and just after the peak were also collected and treated in the same way as the fractions containing the peaks of material. The activity of the peak fractions and the baseline fractions was tested. […] The stimulation of nitrite production is thus specifically associated with the lipid A analogues.

Solubility in water = format: physicochemical; details: sodium salt

## CCCCCCCCCCCCCC(=O)O[C@H](CCCCCCCCCCC)CC(=O)N[C@H]1[C@H](OC[C@H]2O[C@H](OP(=O)(O)O)[C@H](NC(=O)C[C@H](O)CCCCCCCCCCC)[C@@H](O)[C@@H]2O)O[C@H](CO)[C@@H](OP(=O)(O)O)[C@@H]1O [disaccharide B, 2-Deoxy-6-O-[2-deoxy-2-[(R)-3-tetradecanoyloxytetradecanoylamino]-4-O-phosphono-β-D-glucopyranosyl]-2-[(R)-3-hydroxytetradecanoylamino]-α-D-glucopyranosyl dihydrogenphosphate]
[1]
  Endotoxic activity in LAL, gelification: 0.004 ± 0.002 ng/ng
[2]; Mus musculus, Macrophage, product concentration corresponding to 50% activity, 22 hours, 37° C.
  EC50: 0.05 µg/mL (≈ 0.043 µM)
[2]; Mus musculus, Macrophage, product concentration corresponding to induced NO activity, 22 hours, 37° C., read-out: NO production: Minimum activity (product concentration)
  minimal effective concentration: 0.0005 µg/mL
[2]; extrapolated from the series dilution curve
  NO activity at 50% in nmol of NO2- /ml: 5 nmol of NO2- /ml
[2]; macrophages of C57BL/6 mice
  NO production, in words: induce NO production of the same order; also recorded: as strongly as lipid A and 3-O-deacylated lipid A
[2]; product concentration corresponding to induced NO activity, 22 hours, 37° C.
  NO production: Maximum activity (product concentration): 16 µg/mL
Protease in LAL [3]
  Endotoxic activity in LAL, chromogen: 0.0008 ng/ng
[4]
  Endotoxicity in LAL, in words: lowest endotoxicity

## CCCCCCCCCC[C@H](O)C(=O)O[C@H](CCCCCCCCC)CC(=O)N[C@H]1[C@H](OC[C@H]2O[C@H](OP(=O)(O)O)[C@H](NC(=O)C[C@H](O)CCCCCCCCC)[C@@H](O)[C@@H]2O)O[C@H](CO)[C@@H](OP(=O)(O)O)[C@@H]1O [disaccharide E, 2-Deoxy-6-O-[2-deoxy-2-[(R)-3-[(S)-2-hydroxydodecanoyloxy]-dodecanoylamino]-4-O-phosphono-β-D-glucopyranosyl]-2-[(R)-3-hydroxydodecanoylamino]-α-D-glucopyranosyl dihydrogenphosphate]
Protease in LAL [5]
  Endotoxic activity in LAL: 0.000005 ± 0.000002 mg/mg

## CCCCCCCCCC[C@H](O)C(=O)O[C@H](CCCCCCCCC)CC(=O)N[C@H]1[C@@H](OP(=O)(O)O)O[C@H](CO[C@@H]2O[C@H](CO)[C@@H](OP(=O)(O)O)[C@H](O)[C@H]2NC(=O)C[C@H](O)CCCCCCCCC)[C@@H](O)[C@@H]1O [disaccharide F, 2-Deoxy-6-O-[2-deoxy-2-[(R)-3-hydroxydodecanoylamino]-4-O-phosphono-β-D-glucopyranosyl]-2-[(R)-3-[(S)-2-hydroxydodecanoyloxy]-dodecanoylamino]-α-D-glucopyranosyl dihydrogenphosphate]
Protease in LAL [5]
  Endotoxic activity in LAL: 0.000025 ± 0.000026 mg/mg

## CCCCCCCCCCCC(=O)O[C@H](CCCCCCCCC)CC(=O)N[C@H]1[C@H](OC[C@H]2O[C@H](OP(=O)(O)O)[C@H](NC(=O)C[C@H](O)CCCCCCCCC)[C@@H](O)[C@@H]2O)O[C@H](CO)[C@@H](OP(=O)(O)O)[C@@H]1O [disaccharide G, 2-Deoxy-6-O-[2-deoxy-2-[(R)-3-dodecanoyloxydodecanoylamino]-4-O-phosphono-β-D-glucopyranosyl]-2-[(R)-3-hydroxydodecanoylamino]-α-D-glucopyranosyl dihydrogenphosphate]
Protease in LAL [5]
  Endotoxic activity in LAL: 0.00006 ± 0.00003 mg/mg

## CCCCCCCCCCCC(=O)O[C@H](CCCCCCCCC)CC(=O)N[C@H]1[C@H](OC[C@H]2O[C@H](OP(=O)(O)O)[C@H](NC(=O)C[C@@H](CCCCCCCCC)OC(=O)[C@@H](O)CCCCCCCCCC)[C@@H](O)[C@@H]2O)O[C@H](CO)[C@@H](OP(=O)(O)O)[C@@H]1O [disaccharide H, 2-Deoxy-6-O-[2-deoxy-2-[(R)-3-dodecanoyloxydodecanoylamino]-4-O-phosphono-β-D-glucopyranosyl]-2-[(R)-3-[(S)-2-hydroxydodecanoyloxy]-dodecanoylamino]-α-D-glucopyranosyl dihydrogenphosphate]
[6]
  Stimulation of nitrite production, in words: most active

## CCCCCCCCCCCC(=O)O[C@H](CCCCCCCCCCC)CC(=O)N[C@H]1[C@H](OC[C@H]2O[C@H](OP(=O)(O)O)[C@H](NC(=O)C[C@H](O)CCCCCCCCCCC)[C@@H](O)[C@@H]2O)O[C@H](CO)[C@@H](OP(=O)(O)O)[C@@H]1O [sodium salt]
Solubility in water
  Solubility in water, in words: freely soluble in water
  solubility: ≥ 100 mg/mL
